pKd: −log10 of the molar value.
Biological target: T1, CblC (Homo sapiens, UniProt Q9Y4U1)
T1 sequence (Q9Y4U1 1-282): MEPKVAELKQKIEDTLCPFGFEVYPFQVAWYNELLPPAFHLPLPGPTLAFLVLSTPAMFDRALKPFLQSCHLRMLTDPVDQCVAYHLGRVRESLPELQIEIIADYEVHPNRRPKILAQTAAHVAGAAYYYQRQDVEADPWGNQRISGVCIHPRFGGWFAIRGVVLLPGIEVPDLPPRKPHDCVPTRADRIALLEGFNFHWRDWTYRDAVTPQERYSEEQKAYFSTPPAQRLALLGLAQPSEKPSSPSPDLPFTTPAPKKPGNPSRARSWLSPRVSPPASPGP
Test: isothermal titration calorimetry
Conditions: in the presence of glutathione (GSH); base-off binding

## PhEtyCbl [compound 2]
  pKd: 7.52
